Laboratory results taken from patent publication US9211310B2, “Use of a Chinese medicine composition in preparing medicaments for treating secondary prevention of myocardial infarction” (TASLY PHARMACEUTICAL GROUP CO., LTD, priority 2010, dated 2015).

Test system: patients after acute myocardial infarction
Test: TCM symptom score, total and single (chest pain, chest tightness, short breath, fatigue, palpitation, spontaneous perspiration, pale complexion), same clinical trial
Format: in vivo, human
Set-up: total score of TCM symptom, Mean / total score of TCM symptom, Min / total score of TCM symptom, Max / total score of TCM symptom, Md / change of total score of TCM symptom, Mean / change of total score of TCM symptom, Max / change of total score of TCM symptom, Md: scale not given here
Description: 3508 patients who were in accordance with the diagnostic standards of AMI for 28 days to 2 years and differentiated as Qi deficiency and blood stagnation syndrome by TCM were studied. 0.5 g Chinese medicine composition prepared by the method of EXAMPLE 1 (Coded as QSYQ) was administrated half an hour after meal, 3 times per day.
They included the overall survival time, angina pectoris score, TCM symptom score and life quality score, where angina pectoris score, TCM symptom score and life quality score were evaluated at randomization, in 1st, 3rd, 6th, 9th, 12th month after treatment and 18th month after follow-up.
The analysis method referred to the angina pectoris score.

[1] = PP, 12 months after treatment-treatment
[2] = PP, 1 month after treatment-baseline

CC(=O)Oc1ccccc1C(=O)O [Control group, aspirine]
chest tightness score 2, percent of patients (Follow-up, FAS): (0.07%)
chest tightness score 3, number of patients (Follow-up, FAS): 479
chest tightness score 3, percent of patients (Follow-up, FAS): (33.57%)
chest tightness score 6, number of patients (Follow-up, FAS): 192
chest tightness score 6, percent of patients (Follow-up, FAS): (13.45%)
chest tightness score 9, number of patients (Follow-up, FAS): 1
chest tightness score 9, percent of patients (Follow-up, FAS): (0.07%)
chest pain score 0, number of patients (Follow-up, PP): 733
chest pain score 0, percent of patients (Follow-up, PP): (52.62%)
chest pain score 2, number of patients (Follow-up, PP): 1
chest pain score 2, percent of patients (Follow-up, PP): (0.07%)
chest pain score 3, number of patients (Follow-up, PP): 472
chest pain score 3, percent of patients (Follow-up, PP): (33.88%)
chest pain score 6, number of patients (Follow-up, PP): 186
chest pain score 6, percent of patients (Follow-up, PP): (13.35%)
chest pain score 9, number of patients (Follow-up, PP): 1
chest pain score 9, percent of patients (Follow-up, PP): (0.07%)
chest tightness score 0, number of patients (Follow-up, PP): 733
chest tightness score 0, percent of patients (Follow-up, PP): (52.62%)
chest tightness score 2, number of patients (Follow-up, PP): 1
chest tightness score 2, percent of patients (Follow-up, PP): (0.07%)
chest tightness score 3, number of patients (Follow-up, PP): 472
chest tightness score 3, percent of patients (Follow-up, PP): (33.88%)
chest tightness score 6, number of patients (Follow-up, PP): 186
chest tightness score 6, percent of patients (Follow-up, PP): (13.35%)
chest tightness score 9, number of patients (Follow-up, PP): 1
chest tightness score 9, percent of patients (Follow-up, PP): (0.07%)
change of short breath 0, % of patients [1]: (53.11%)
change of short breath 2, % of patients [1]: (36.17%)
change of short breath 2, number of patients [1]: 506
change of short breath 4, % of patients [1]: (4.50%)
change of short breath 4, number of patients [1]: 63
change of short breath 6, % of patients [1]: (0.79%)
change of short breath 6, number of patients [1]: 11
change of short breath −2, % of patients [1]: (5.36%)
change of short breath −2, number of patients [1]: 75
change of short breath −4, % of patients [1]: (0.07%)
change of short breath −4, number of patients [1]: 1
distribution of total score of TCM symptom: Medium, number of patients (PP, 1 month after treatment): 600
distribution of total score of TCM symptom: Medium, percentage of patients (PP, 1 month after treatment): (41.04%)
distribution of total score of TCM symptom: Mild, number of patients (PP, 1 month after treatment): 847
distribution of total score of TCM symptom: Mild, percentage of patients (PP, 1 month after treatment): (57.93%)
distribution of total score of TCM symptom: Severe, number of patients (PP, 1 month after treatment): 15
distribution of total score of TCM symptom: Severe, percentage of patients (PP, 1 month after treatment): (1.03%)
fatigue score 0, % of patients (PP, 1 month after treatment): (23.62%)
fatigue score 0, number of patients (PP, 1 month after treatment): 346
fatigue score 2, % of patients (PP, 1 month after treatment): (60.75%)
fatigue score 2, number of patients (PP, 1 month after treatment): 890
fatigue score 4, % of patients (PP, 1 month after treatment): (14.40%)
fatigue score 4, number of patients (PP, 1 month after treatment): 211
fatigue score 6, % of patients (PP, 1 month after treatment): (1.23%)
fatigue score 6, number of patients (PP, 1 month after treatment): 18
pale complexion score 0, number of patients (PP, 1 month after treatment): 613
pale complexion score 0, percent of patients (PP, 1 month after treatment): (41.81%)
pale complexion score 1, number of patients (PP, 1 month after treatment): 615
pale complexion score 1, percent of patients (PP, 1 month after treatment): (41.95%)
pale complexion score 2, number of patients (PP, 1 month after treatment): 211
pale complexion score 2, percent of patients (PP, 1 month after treatment): (14.39%)
pale complexion score 3, number of patients (PP, 1 month after treatment): 27
pale complexion score 3, percent of patients (PP, 1 month after treatment): (1.84%)
palpitation score 0, number of patients (PP, 1 month after treatment): 353
palpitation score 0, percent of patients (PP, 1 month after treatment): (24.11%)
palpitation score 1, number of patients (PP, 1 month after treatment): 1
palpitation score 1, percent of patients (PP, 1 month after treatment): (0.07%)
palpitation score 2, number of patients (PP, 1 month after treatment): 713
palpitation score 2, percent of patients (PP, 1 month after treatment): (48.70%)
palpitation score 4, number of patients (PP, 1 month after treatment): 351
palpitation score 4, percent of patients (PP, 1 month after treatment): (23.98%)
palpitation score 6, number of patients (PP, 1 month after treatment): 46
palpitation score 6, percent of patients (PP, 1 month after treatment): (3.14%)
short breath score 0, % of patients (PP, 1 month after treatment): (20.68%)
short breath score 0, number of patients (PP, 1 month after treatment): 303
short breath score 3, % of patients (PP, 1 month after treatment): (53.72%)
short breath score 3, number of patients (PP, 1 month after treatment): 787
short breath score 6, % of patients (PP, 1 month after treatment): (24.91%)
short breath score 6, number of patients (PP, 1 month after treatment): 365
short breath score 9, % of patients (PP, 1 month after treatment): (0.68%)
short breath score 9, number of patients (PP, 1 month after treatment): 10
spontaneous perspiration score 0, number of patients (PP, 1 month after treatment): 518
spontaneous perspiration score 0, percent of patients (PP, 1 month after treatment): (35.36%)
spontaneous perspiration score 1, number of patients (PP, 1 month after treatment): 738
spontaneous perspiration score 1, percent of patients (PP, 1 month after treatment): (50.38%)
spontaneous perspiration score 2, number of patients (PP, 1 month after treatment): 195
spontaneous perspiration score 2, percent of patients (PP, 1 month after treatment): (13.31%)
spontaneous perspiration score 3, number of patients (PP, 1 month after treatment): 14
spontaneous perspiration score 3, percent of patients (PP, 1 month after treatment): (0.96%)
total score of TCM symptom, Max (PP, 1 month after treatment): 34.00
total score of TCM symptom, Md (PP, 1 month after treatment): 11.00
total score of TCM symptom, Mean (PP, 1 month after treatment): 11.93
total score of TCM symptom, Min (PP, 1 month after treatment): 0.00
change of fatigue 0, % of patients [2]: (72.24%)
change of fatigue 0, number of patients [2]: 1054
change of fatigue 1, % of patients [2]: (0.07%)
change of fatigue 1, number of patients [2]: 1
change of fatigue 2, % of patients [2]: (17.82%)
change of fatigue 2, number of patients [2]: 260
change of fatigue 4, % of patients [2]: (2.40%)
change of fatigue 4, number of patients [2]: 35
change of fatigue 6, % of patients [2]: (0.82%)
change of fatigue 6, number of patients [2]: 12
change of fatigue −2, % of patients [2]: (5.96%)
change of fatigue −2, number of patients [2]: 87
change of fatigue −4, % of patients [2]: (0.62%)
change of fatigue −4, number of patients [2]: 9
change of fatigue −6, % of patients [2]: (0.07%)
change of fatigue −6, number of patients [2]: 1
change of pale complexion 0, number of patients [2]: 1275
change of pale complexion 0, percent of patients [2]: (87.45%)
change of pale complexion 1, number of patients [2]: 131
change of pale complexion 1, percent of patients [2]: (8.98%)
change of pale complexion −1, number of patients [2]: 52
change of pale complexion −1, percent of patients [2]: (3.57%)
change of palpitation 0, number of patients [2]: 1051
change of palpitation 0, percent of patients [2]: (71.99%)
change of palpitation 1, number of patients [2]: 295
change of palpitation 1, percent of patients [2]: (20.21%)
change of palpitation 2, number of patients [2]: 22
change of palpitation 2, percent of patients [2]: (1.51%)
change of palpitation 3, number of patients [2]: 4
change of palpitation 3, percent of patients [2]: (0.27%)
change of palpitation −1, number of patients [2]: 87
change of palpitation −1, percent of patients [2]: (5.96%)
change of palpitation −2, number of patients [2]: 1
change of palpitation −2, percent of patients [2]: (0.07%)
